These results are taken from PubChem BioAssay AID328 (DTP/NCI, 2004).

In the assay the test system is BDF1 mice, P388 leukemia ip, median survival T/C. Description: NCI In Vivo Anticancer Drug Screen. Data for tumor model P388 Leukemia (intraperitoneal) in B6D2F1 (BDF1) mice. The conditions noted are these: endpoint: median survival time, higher = longer survival. The procedure, abridged: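 Antitumour effect was judged in vivo: survival in drug-treated mice, normalised to that of vehicle-dosed controls, gives the reported T/C.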

The mark [1] stands for this setting: dose: 100.0 mg/kg/injection, schedule: Q01DX001 (ip), vehicle: saline with Tween-80.
Where [2] appears, read: dose: 200.0 mg/kg/injection, schedule: Q01DX001 (ip), vehicle: saline with Tween-80.
Setting [3] is: dose: 100.0 mg/kg/injection, schedule: Q01DX009 (ip), vehicle: saline with Tween-80.
Where [4] appears, read: dose: 200.0 mg/kg/injection, schedule: Q01DX009 (ip), vehicle: saline with Tween-80.
Where [5] appears, read: dose: 100.0 mg/kg/injection, schedule: Q04DX003 (ip), vehicle: Klucel (hydroxypropylcellulose) (HPC).
Where [6] appears, read: dose: 50.0 mg/kg/injection, schedule: Q01DX009 (ip), vehicle: Klucel (hydroxypropylcellulose) (HPC).
The mark [7] stands for this setting: dose: 6.25 mg/kg/injection, schedule: Q01DX009 (ip), vehicle: Klucel (hydroxypropylcellulose) (HPC).
[8] abbreviates: dose: 12.5 mg/kg/injection, schedule: Q01DX009 (ip), vehicle: Klucel (hydroxypropylcellulose) (HPC).
Setting [9] is: dose: 100.0 mg/kg/injection, schedule: Q04DX003 (ip), vehicle: saline.
[10] abbreviates: dose: 200.0 mg/kg/injection, schedule: Q04DX003 (ip), vehicle: saline.
The mark [11] stands for this setting: dose: 400.0 mg/kg/injection, schedule: Q04DX003 (ip), vehicle: saline.
[12] abbreviates: dose: 25.0 mg/kg/injection, schedule: Q01DX009 (ip), vehicle: Klucel (hydroxypropylcellulose) (HPC).
[13] abbreviates: dose: 100.0 mg/kg/injection, schedule: Q01DX001 (ip), vehicle: Klucel (hydroxypropylcellulose) (HPC).
Setting [14] is: dose: 200.0 mg/kg/injection, schedule: Q01DX001 (ip), vehicle: Klucel (hydroxypropylcellulose) (HPC).

Structures are written as SMILES. Several values for one entry are separate records, joined by “and”; a condition that tells them apart may be missing. Equal values may be shown once. Inconclusive results and toxic doses are left out.

In the case of `CC(C)(C)OC(=O)NC(CCSCC(=O)O)C(N)=O` (centres undefined), the T/C is, setting by setting: (dose: 50.0 mg/kg/injection, schedule: Q01DX009 (ip), vehicle: saline) 91 % of control; (dose: 100.0 mg/kg/injection, schedule: Q01DX009 (ip), vehicle: saline) 88 % of control; (dose: 200.0 mg/kg/injection, schedule: Q01DX009 (ip), vehicle: saline) 95 % of control.
Turning to `O=C1OC(O)C(Cl)=C1Cl` (centres undefined), the T/C reads like this: (dose: 1.56 mg/kg/injection, schedule: Q01DX009 (ip), vehicle: saline with Tween-80) 101 % of control; (dose: 3.12 mg/kg/injection, schedule: Q01DX009 (ip), vehicle: saline with Tween-80) 107 % of control; (dose: 6.25 mg/kg/injection, schedule: Q01DX009 (ip), vehicle: saline with Tween-80) 109 % of control and 115 % of control; (dose: 12.5 mg/kg/injection, schedule: Q01DX009 (ip), vehicle: saline with Tween-80) 115 % of control.
As for `CCOC(O)C(Cl)(Cl)Cl` (centres undefined), the T/C is 100 % of control under setting [1]; 100 % of control under setting [2]; 100 % of control (dose: 400.0 mg/kg/injection, schedule: Q01DX001 (ip), vehicle: saline with Tween-80).
Regarding `CSc1ccc(O)c(S)c1`, the T/C by setting is: (dose: 50.0 mg/kg/injection, schedule: Q01DX009 (ip), vehicle: saline with Tween-80) 118 % of control; under setting [3], 122 % of control; under setting [4], 124 % of control.
With `O=C(/C=N\O)c1ccncc1`, the T/C was 100 % of control (dose: 50.0 mg/kg/injection, schedule: Q04DX003 (ip), vehicle: Klucel (hydroxypropylcellulose) (HPC)) and 100 % of control under setting [5].
`C/C(=N/N(C)C)c1ccc([N+](=O)[O-])cc1`: the T/C by setting is: (dose: 6.25 mg/kg/injection, schedule: Q01DX009 (ip), vehicle: saline) 87 % of control; (dose: 12.5 mg/kg/injection, schedule: Q01DX009 (ip), vehicle: saline) 91 % of control; (dose: 25.0 mg/kg/injection, schedule: Q01DX009 (ip), vehicle: saline) 100 % of control; under setting [6], 109 % of control.
Take `CCc1cc2c(cc1C(=O)CBr)C(C)(C)CCC2(C)C`: the T/C is 110 % of control (dose: 3.12 mg/kg/injection, schedule: Q01DX009 (ip), vehicle: Klucel (hydroxypropylcellulose) (HPC)); 113 % of control (dose: 3.8 mg/kg/injection, schedule: Q04DX003 (ip), vehicle: Klucel (hydroxypropylcellulose) (HPC)); 113 % of control (dose: 5.7 mg/kg/injection, schedule: Q04DX003 (ip), vehicle: Klucel (hydroxypropylcellulose) (HPC)); 105 % of control under setting [7]; 110 % of control under setting [8]; 100 % of control (dose: 23.0 mg/kg/injection, schedule: Q04DX003 (ip), vehicle: Klucel (hydroxypropylcellulose) (HPC)). Besides, under “dose: 52.5 mg/kg/injection, schedule: Q04DX003 (ip), vehicle: Klucel (hydroxypropylcellulose) (HPC)”, the T/C was 120 % of control.
Consider `[N-]=[N+]=NC(=O)C1(Br)CCC2c3ccccc3C([N+](=O)[O-])(C1)c1ccccc12` (centres undefined), for which the T/C was 95 % of control under setting [9], 100 % of control under setting [10] and 109 % of control under setting [11].
`C/C(=N\N1CCCCCC1)c1ccccc1`: the T/C (dose: 50.0 mg/kg/injection, schedule: Q04DX003 (sc), vehicle: olive oil, sesame oil, peanut oil) was 95 % of control; the T/C (dose: 100.0 mg/kg/injection, schedule: Q04DX003 (sc), vehicle: olive oil, sesame oil, peanut oil) was 95 % of control; the T/C (dose: 200.0 mg/kg/injection, schedule: Q04DX003 (sc), vehicle: olive oil, sesame oil, peanut oil) is 91 % of control.
For the molecule `COc1cc([C@@H]2c3cc4c(cc3C(Br)[C@H]3COC(=O)[C@H]23)OCO4)cc(OC)c1OC` (some centres undefined), the T/C runs as follows: (dose: 1.0 mg/kg/injection, schedule: Q01DX010 (ip), vehicle: carboxymethylcellulose (CMC)) 104 % of control; (dose: 2.1 mg/kg/injection, schedule: Q01DX010 (ip), vehicle: carboxymethylcellulose (CMC)) 104 % of control; (dose: 4.2 mg/kg/injection, schedule: Q01DX010 (ip), vehicle: carboxymethylcellulose (CMC)) 104 % of control; (dose: 7.5 mg/kg/injection, schedule: Q01DX009 (ip), vehicle: Klucel (hydroxypropylcellulose) (HPC)) 161 % of control; (dose: 15.0 mg/kg/injection, schedule: Q01DX009 (ip), vehicle: Klucel (hydroxypropylcellulose) (HPC)) 190 % of control; (dose: 30.0 mg/kg/injection, schedule: Q01DX009 (ip), vehicle: Klucel (hydroxypropylcellulose) (HPC)) 95 % of control.
In the case of `O=C1c2cc(O)c(O)cc2O[C@H](c2ccc(O)c(O)c2)[C@H]1O`, the T/C (dose: 7.5 mg/kg/injection, schedule: Q01DX010 (ip), vehicle: saline) is 100 % of control; the T/C (dose: 15.0 mg/kg/injection, schedule: Q01DX009 (ip), vehicle: saline) is 113 % of control and 118 % of control; the T/C (dose: 15.0 mg/kg/injection, schedule: Q01DX010 (ip), vehicle: saline) is 109 % of control; the T/C (dose: 30.0 mg/kg/injection, schedule: Q01DX009 (ip), vehicle: saline) was 100 % of control; the T/C (dose: 30.0 mg/kg/injection, schedule: Q01DX010 (ip), vehicle: saline) is 109 % of control; the T/C (dose: 60.0 mg/kg/injection, schedule: Q01DX009 (ip), vehicle: saline) was 104 % of control and 122 % of control. For the same molecule, the T/C (dose: 125.0 mg/kg/injection, schedule: Q01DX009 (ip), vehicle: saline) is 104 % of control and the T/C (dose: 350.0 mg/kg/injection, schedule: Q01DX009 (ip), vehicle: saline) is 117 % of control.
Take `OCc1cnc[nH]1`: the T/C reads like this: under setting [7], 96 % of control; under setting [8], 91 % of control; under setting [12], 90 % of control; under setting [6], 99 % of control.
Consider `COc1cc(C)c(Cl)c(C)c1C#CC(=O)O`, for which the T/C runs as follows: under setting [13], 115 % of control; under setting [14], 111 % of control.
In the case of `O=C(C[n+]1ccccc1)N/N=C/c1ccc(O)c(O)c1`, the T/C runs as follows: under setting [3], 100 % of control; (dose: 100.0 mg/kg/injection, schedule: Q04DX003 (ip), vehicle: saline with Tween-80) 95 % of control; under setting [4], 104 % of control; (dose: 200.0 mg/kg/injection, schedule: Q04DX003 (ip), vehicle: saline with Tween-80) 86 % of control.
On to `O=C(NCC(O)CCl)c1ccc([N+](=O)[O-])cc1` (centres undefined), for which the T/C is 100 % of control under setting [13]; 100 % of control under setting [14]; 110 % of control (dose: 400.0 mg/kg/injection, schedule: Q01DX001 (ip), vehicle: Klucel (hydroxypropylcellulose) (HPC)).
Consider `CCCCCCCCC1SC1CCCCCCCC(=O)OCCOCCOCC` (centres undefined), for which the T/C is, setting by setting: under setting [9], 88 % of control; under setting [10], 88 % of control; under setting [11], 92 % of control.
With `CN(C)C=Nc1ccc2c3c(cccc13)CC2`, the T/C is, setting by setting: under setting [7], 103 % of control; under setting [8], 99 % of control; (dose: 16.6 mg/kg/injection, schedule: Q01DX009 (ip), vehicle: Klucel (hydroxypropylcellulose) (HPC)) 115 % of control; under setting [12], 114 % of control.
On to `Cn1c2ccccc2c(=S)c2ccccc21`, for which the T/C reads like this: under setting [1], 89 % of control; under setting [2], 90 % of control.
Regarding `O=C(c1ccccc1)N(Nc1ccccc1)c1ccccc1`, the T/C was 95 % of control (dose: 100.0 mg/kg/injection, schedule: Q01DX009 (ip), vehicle: Klucel (hydroxypropylcellulose) (HPC)); 100 % of control under setting [5]; 109 % of control (dose: 200.0 mg/kg/injection, schedule: Q01DX009 (ip), vehicle: Klucel (hydroxypropylcellulose) (HPC)); 100 % of control (dose: 200.0 mg/kg/injection, schedule: Q04DX003 (ip), vehicle: Klucel (hydroxypropylcellulose) (HPC)); 95 % of control (dose: 400.0 mg/kg/injection, schedule: Q01DX009 (ip), vehicle: Klucel (hydroxypropylcellulose) (HPC)); 100 % of control (dose: 400.0 mg/kg/injection, schedule: Q04DX003 (ip), vehicle: Klucel (hydroxypropylcellulose) (HPC)).
